Assay results: patent US11260049B2, “TRPV4 antagonists” (GlaxoSmithKline Intellectual Property (No. 2) Limited, priority 2016, dated 2022)
pIC50: −log10 of the molar value. Structures can show the parent of a compound that is named as a salt.

Target: human TRPV4 (Homo sapiens (Human), UniProt Q9HBA0)
Test: FLIPR assay for hTRPV4 expressed in BHK cells
Type: cell-based
Conditions: inhibition of Agonist Compound (EC80)-induced calcium signal; BHK/AC9 cells expressing human TRPV4; read-out: IC50
Procedure, shortened: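 BHK/AC9 cells transduced with BacMam human TRPV4 (MOI 78), 15,000 cells/well, cultured 24 h at 37 °C. Loaded with 2 μM Fluo-4 AM and 500 μM Brilliant Black in HBSS for 1–1.5 h at room temperature in the dark. Intracellular calcium influx monitored by fluorescence.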

human TRPV4, sequence (Q9HBA0 whole entry): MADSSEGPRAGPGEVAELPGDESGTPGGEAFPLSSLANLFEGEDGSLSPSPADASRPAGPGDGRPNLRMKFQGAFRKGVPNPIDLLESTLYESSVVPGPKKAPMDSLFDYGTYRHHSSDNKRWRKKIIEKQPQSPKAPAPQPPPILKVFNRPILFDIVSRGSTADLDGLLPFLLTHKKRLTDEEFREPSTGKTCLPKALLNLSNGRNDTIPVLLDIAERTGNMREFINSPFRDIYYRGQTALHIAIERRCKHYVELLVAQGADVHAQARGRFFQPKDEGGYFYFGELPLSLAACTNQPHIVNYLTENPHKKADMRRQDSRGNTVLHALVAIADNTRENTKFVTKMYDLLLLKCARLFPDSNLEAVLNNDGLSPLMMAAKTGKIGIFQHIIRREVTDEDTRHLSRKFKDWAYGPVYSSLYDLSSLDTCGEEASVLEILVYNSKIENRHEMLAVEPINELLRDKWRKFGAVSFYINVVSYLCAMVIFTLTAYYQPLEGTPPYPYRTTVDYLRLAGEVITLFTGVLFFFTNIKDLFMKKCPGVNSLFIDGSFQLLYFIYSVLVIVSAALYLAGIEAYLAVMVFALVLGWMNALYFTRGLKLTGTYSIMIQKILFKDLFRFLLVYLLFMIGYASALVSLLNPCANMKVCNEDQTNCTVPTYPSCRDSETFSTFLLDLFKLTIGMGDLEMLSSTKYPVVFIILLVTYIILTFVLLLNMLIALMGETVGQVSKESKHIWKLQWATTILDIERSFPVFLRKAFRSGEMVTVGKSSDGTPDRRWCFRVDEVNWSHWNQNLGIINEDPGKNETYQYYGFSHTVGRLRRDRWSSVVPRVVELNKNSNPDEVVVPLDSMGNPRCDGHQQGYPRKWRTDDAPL

SMILES	pIC50
N#Cc1ccc(S(=O)(=O)N2C[C@H](S(=O)(=O)c3ccc(Cl)cc3)[C@@](O)(CNCC(F)(F)F)C2)c(Cl)c1 [Example 128, 3-chloro-4-(((3R,4S)-4-((4-chlorophenyl)sulfonyl)-3-hydroxy-3-(((2,2,2-trifluoroethyl)amino)methyl)pyrrolidin-1-yl)sulfonyl)benzonitrile]	7.00 to 8.00
N#Cc1ccc(S(=O)(=O)N2C[C@H](S(=O)(=O)c3ccc(Cl)cn3)[C@@]3(CNCCO3)C2)c(Cl)c1 [Example 129, 3-chloro-4-(((4S,5R)-4-((5-chloropyridin-2-yl)sulfonyl)-6-oxa-2,9-diazaspiro[4.5]decan-2-yl)sulfonyl)benzonitrile, Hydrochloride]	7.00 to 8.00
